Laboratory results published in patent US5783575A, “Antagonists, their preparation and use” (Novo Nordisk A/S, priority 1994, dated 1998).
Like-named read-outs stand apart in the source and are kept apart here.

Columns and labels:
mGluR1a [1] = biological target: T1, mGluR1a (Rattus norvegicus, UniProt P23385); experiment: Inhibition of PI-hydrolysis in BHK 570 cells expressing mGluR1a receptors (antagonist activity vs 10 μM glutamate); assay type: cell-based
T1 construct: expressed in transfected cells; host or cells: BHK 570 (baby hamster kidney) cells

mGluR1α = conditions: 1 mM, BHK cells expressing mGluR1α; cited from earlier work
[2] = test system: metabotropic glutamate receptor at the subtypes mGluR1 and mGluR5; conditions: Thomsen and Suzdak 1993; cited from earlier work
mGluR1a [3] = biological target: T1, mGluR1a; experiment: [3H]Glutamate binding to mGluR1a; conditions: BHK cells expressing mGluR1a
Description: Membranes prepared from BHK cells expressing mGluR1a were prepared as described (Thomsen, C. et al. (1993), Brain Res. 619, 22-28). […] IC50 values were calculated by a non-linear regression analysis using the GraphPad-Prism program (I.S.I., Philadelphia). Inhibitory constants (Ki) were calculated from the IC50 values using the equation: […]

Bz = experiment: Affinity for Bz receptor (Table 3); assay type: binding
AMPA = experiment: Affinity for AMPA receptor (Table 3); assay type: binding
TCP = experiment: Affinity for TCP receptor (Table 3); assay type: binding
mGluR1a [4] = biological target: T1, mGluR1a; experiment: Testing for non competitiveness: mGluR1a-mediated PI-hydrolysis, glutamate dose-response with and without antagonist; assay type: cell-based; conditions: for effect on maximal response for glutamate / effect on the potency of glutamate / pharmacological profile: BHK cells expressing mGluR1a; for Emax: basal subtracted
CPP = experiment: Affinity for CPP receptor (Table 3); assay type: binding
KAIN = experiment: Affinity for KAIN receptor (Table 3); assay type: binding
CNQX = experiment: Affinity for CNQX receptor (Table 3); assay type: binding
NMDA-induced responses = conditions: a number of preparations; cited from earlier work
mGluR1a [5] = biological target: T1, mGluR1a; conditions: competitive antagonist, Thomsen and Suzdak 1993; cited from earlier work
mGluR1a [6] = biological target: T1, mGluR1a; conditions: BHK cells expressing mGluR1a, Thomsen and Suzdak 1993; cited from earlier work
[7] = test system: metabotropic glutamate receptor; conditions: cited from earlier work
currents evoked by AMPA = conditions: neurones, nucleus of the Solitary tract; cited from earlier work
[8] = test system: responses evoked by the ionotropic glutamate receptor agonist, AMPA; conditions: Mori-Okamoto et al. 1993; cited from earlier work
GABAA = conditions: neurones, nucleus of the Solitary tract; cited from earlier work
mGluR1/mGluR5 = conditions: Mori-Okamoto et al. 1993; cited from earlier work
nerve cell cultures = conditions: Koh et al. 1991; cited from earlier work
[9] = test system: release of dopamine in the rat brain; conditions: Sacaan et al. 1992; cited from earlier work
MCAO model in mice = conditions: Chiamulera et al. 1992; cited from earlier work
control BHK cells = conditions: 1 mM; cited from earlier work
[10] = read-out: response to glutamate relative to the maximal response evoked by 300 μM glutamate, antagonist 10 μM, glutamate 0
[11] = read-out: response to glutamate relative to the maximal response evoked by 300 μM glutamate, antagonist 10 μM, glutamate 3
[12] = read-out: response to glutamate relative to the maximal response evoked by 300 μM glutamate, antagonist 10 μM, glutamate 10
[13] = read-out: response to glutamate relative to the maximal response evoked by 300 μM glutamate, antagonist 10 μM, glutamate 30
[14] = read-out: response to glutamate relative to the maximal response evoked by 300 μM glutamate, antagonist 10 μM, glutamate 100
[15] = read-out: response to glutamate relative to the maximal response evoked by 300 μM glutamate, antagonist 10 μM, glutamate 300

T1 sequence (P23385 19-1199): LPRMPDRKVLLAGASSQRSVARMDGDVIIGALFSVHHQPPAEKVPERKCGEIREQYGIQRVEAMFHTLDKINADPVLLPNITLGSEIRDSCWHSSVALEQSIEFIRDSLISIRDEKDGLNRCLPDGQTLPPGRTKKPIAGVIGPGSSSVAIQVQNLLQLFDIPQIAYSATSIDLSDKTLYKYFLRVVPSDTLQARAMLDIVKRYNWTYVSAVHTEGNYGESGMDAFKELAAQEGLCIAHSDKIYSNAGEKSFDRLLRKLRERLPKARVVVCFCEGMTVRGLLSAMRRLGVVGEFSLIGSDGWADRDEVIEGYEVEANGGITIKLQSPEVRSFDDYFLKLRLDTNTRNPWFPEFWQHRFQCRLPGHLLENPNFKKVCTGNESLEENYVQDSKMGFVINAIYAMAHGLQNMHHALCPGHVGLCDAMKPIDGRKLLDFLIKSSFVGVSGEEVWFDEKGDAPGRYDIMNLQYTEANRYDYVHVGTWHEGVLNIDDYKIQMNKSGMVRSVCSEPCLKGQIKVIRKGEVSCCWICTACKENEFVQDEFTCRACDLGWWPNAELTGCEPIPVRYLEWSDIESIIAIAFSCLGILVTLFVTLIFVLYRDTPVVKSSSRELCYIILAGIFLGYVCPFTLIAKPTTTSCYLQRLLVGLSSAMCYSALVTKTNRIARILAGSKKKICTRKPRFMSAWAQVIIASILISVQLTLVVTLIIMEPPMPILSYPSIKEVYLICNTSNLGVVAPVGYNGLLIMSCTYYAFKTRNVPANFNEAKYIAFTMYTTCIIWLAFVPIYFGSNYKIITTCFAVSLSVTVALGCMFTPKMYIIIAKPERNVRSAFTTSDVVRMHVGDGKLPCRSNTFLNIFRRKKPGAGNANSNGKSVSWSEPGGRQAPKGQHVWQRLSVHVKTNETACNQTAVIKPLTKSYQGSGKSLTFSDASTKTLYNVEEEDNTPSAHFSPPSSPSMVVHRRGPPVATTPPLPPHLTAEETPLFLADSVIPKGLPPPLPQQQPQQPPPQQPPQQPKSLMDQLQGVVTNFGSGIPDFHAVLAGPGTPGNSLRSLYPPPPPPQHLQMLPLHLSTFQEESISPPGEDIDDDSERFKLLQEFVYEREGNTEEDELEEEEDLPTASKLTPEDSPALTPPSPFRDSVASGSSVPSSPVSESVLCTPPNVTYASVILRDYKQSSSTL

## Cn1c2ccccc2c2cc(C(=O)N3CCOCC3)sc21 [Compound 27, 8-Methyl-2-morpholinocarbonylthieno[2,3-b]indole]
mGluR1a [1]
  IC50: 5.3 µM

## N[C@@H](CCC(=O)O)C(=O)O [glutamate, L-glutamate]
mGluR1α
  increase over basal PI-hydrolysis: 6-8 fold

## N[C@H](C(=O)O)c1ccc(C(=O)O)c(O)c1 [Compound S-4C3HPG, S-4-carboxy-3-hydroxyphenyl glycine]
[2]
  antagonism of trans ACPD stimulated phosphoinositide hydrolysis: antagonise trans ACPD stimulated phosphoinositide hydrolysis

## O=C(O)c1cc2c3ccccc3n(Cc3ccccc3)c2s1 [Compound 8, 8-Benzylthieno[2,3-b]indole-2-carboxylic acid]
mGluR1a [3]
  displacement of [3H]glutamate binding: did not displace
Bz
  IC50: 471 µM
AMPA
  IC50: > 980 µM
TCP
  IC50: > 980 µM
mGluR1a [4]
  effect on maximal response for glutamate: dose-dependently decreased the maximal response for glutamate
  effect on the potency of glutamate: did not affect the potency of glutamate
  pharmacological profile: non-competitive antagonists
mGluR1a [4]; [10]
  Emax: 2%
mGluR1a [4]; [11]
  Emax: 5%
mGluR1a [4]; [12]
  Emax: 35%
mGluR1a [4]; [13]
  Emax: 65%
mGluR1a [4]; [14]
  Emax: 92%
mGluR1a [4]; [15]
  Emax: 89%
mGluR1a [4]; read-out: response to glutamate relative to the maximal response evoked by 300 μM glutamate, antagonist 30 μM, glutamate 0
  Emax: 2%
mGluR1a [4]; read-out: response to glutamate relative to the maximal response evoked by 300 μM glutamate, antagonist 30 μM, glutamate 3
  Emax: 4%
mGluR1a [4]; read-out: response to glutamate relative to the maximal response evoked by 300 μM glutamate, antagonist 30 μM, glutamate 10
  Emax: 22%
mGluR1a [4]; read-out: response to glutamate relative to the maximal response evoked by 300 μM glutamate, antagonist 30 μM, glutamate 30
  Emax: 58%
mGluR1a [4]; read-out: response to glutamate relative to the maximal response evoked by 300 μM glutamate, antagonist 30 μM, glutamate 100
  Emax: 64%
mGluR1a [4]; read-out: response to glutamate relative to the maximal response evoked by 300 μM glutamate, antagonist 30 μM, glutamate 300
  Emax: 66%
mGluR1a [4]; read-out: response to glutamate relative to the maximal response evoked by 300 μM glutamate, antagonist 100 μM, glutamate 0
  Emax: 5%
mGluR1a [4]; read-out: response to glutamate relative to the maximal response evoked by 300 μM glutamate, antagonist 100 μM, glutamate 3
  Emax: 2%
mGluR1a [4]; read-out: response to glutamate relative to the maximal response evoked by 300 μM glutamate, antagonist 100 μM, glutamate 10
  Emax: 1%
mGluR1a [4]; read-out: response to glutamate relative to the maximal response evoked by 300 μM glutamate, antagonist 100 μM, glutamate 30
  Emax: 24%
mGluR1a [4]; read-out: response to glutamate relative to the maximal response evoked by 300 μM glutamate, antagonist 100 μM, glutamate 100
  Emax: 34%
mGluR1a [4]; read-out: response to glutamate relative to the maximal response evoked by 300 μM glutamate, antagonist 100 μM, glutamate 300
  Emax: 38%
CPP
  IC50: 300 µM
KAIN
  IC50: 870 µM
CNQX
  IC50: > 980 µM
mGluR1a [1]
  IC50: 21 µM
mGluR1a [1]; based on Table 3, criterion 5-fold more potent at mGluR1a
  receptor selectivity for mGluR1a: considered selective for mGluR1a

## N[C@H](C(=O)O)c1ccc(C(=O)O)cc1 [Compound S-4CPG, S-4-carboxyphenyl glycine]
[2]
  antagonism of trans ACPD stimulated phosphoinositide hydrolysis: antagonise trans ACPD stimulated phosphoinositide hydrolysis

## O=C(O)c1cc2c3ccccc3n(Cc3ccccc3)c2nc1N1CCOCC1 [Compound 3b, 9-Benzyl-2-morpholinopyridino[2,3-b]indole-3-carboxylic acid]
mGluR1a [3]
  displacement of [3H]glutamate binding: did not displace
mGluR1a [4]
  effect on maximal response for glutamate: dose-dependently decreased the maximal response for glutamate
  effect on the potency of glutamate: did not affect the potency of glutamate
  pharmacological profile: non-competitive antagonists
mGluR1a [4]; [10]
  Emax: 2%
mGluR1a [4]; [11]
  Emax: 5%
mGluR1a [4]; [12]
  Emax: 16%
mGluR1a [4]; [13]
  Emax: 53%
mGluR1a [4]; [14]
  Emax: 75%
mGluR1a [4]; [15]
  Emax: 77%
mGluR1a [1]
  IC50: 10 µM

## N[C@@]1(C(=O)O)CC[C@@H](C(=O)O)C1 (relative stereo) [(±)-trans-ACPD]
NMDA-induced responses
  effect on NMDA-induced responses: enhanced

## Cn1c2ccc(Cl)cc2c2cc(C(=O)O)sc21 [Compound 54, 5-Chloro-8-methylthieno[2,3-b]indole-2-carboxylic acid]
mGluR1a [1]
  IC50: 7.2 µM

## C[C@@](N)(C(=O)O)c1ccc(C(=O)O)cc1 [S-MCPG, S-alpha-methyl-4-carboxyphenyl glycine]
[2]
  antagonism of trans ACPD stimulated phosphoinositide hydrolysis: antagonise trans ACPD stimulated phosphoinositide hydrolysis

## NC(C(=O)O)c1ccc(C(=O)O)c(O)c1 (stereo not shown) [4-carboxy-3-hydroxyphenylglycine]
mGluR1a [5]
  displacement of [3H]glutamate binding: displaced [^3 H]glutamate binding from mGluR1a with an affinity which was similar to the functional antagonist potency
mGluR1a [6]
  effect on maximal response to glutamate: not affected
  effect on potency of glutamate to stimulate PI-hydrolysis: decreased

## c1ccc(Cn2c3ccccc3c3cc(-c4nnn[nH]4)sc32)cc1 [Compound 25, 8-Benzyl-2-(5-tetrazolyl)thieno[2,3-b]indole]
mGluR1a [1]
  IC50: 9 µM

## NC(C(=O)O)c1cc(O)no1 (stereo not shown) [ibotenate]
[7]
  agonism on the metabotropic glutamate receptor: non-selective agonists

## N[C@@]1(C(=O)O)CC[C@@H](C(=O)O)C1 [(1S,3R)-ACPD]
Currents evoked by AMPA
  effect on currents evoked by AMPA: potentiated
[8]
  effect on responses evoked by AMPA: suppress responses evoked by the ionotropic glutamate receptor agonist, AMPA
GABAA
  effect on GABAA-mediated currents: attenuated

## CN1CCN(C(=O)c2cc3c4ccccc4n(C)c3s2)CC1 [Compound 31, 8-Methyl-2-(4-methyl-1-piperazinylcarbonyl)thieno[2,3-b]indole]
mGluR1a [1]
  IC50: 36 µM

## CCOC(=O)C(C#N)=Cc1c(Cl)n(Cc2ccccc2)c2ccccc12 [Compound 1a, Ethyl 2-cyano-3-(1-benzyl-2-chloro-3-indolyl)acrylate]
mGluR1a [1]
  IC50: 2.2 µM

## N[C@@H](CP(=O)(O)O)C(=O)O [L-AP3, L-2-amino-3-phosphonopropionic acid]
[7]
  activity at metabotropic receptors: partial agonist
mGluR1/mGluR5
  antagonism of mGluR1/mGluR5: antagonist

## C=C(C)[C@H]1CN[C@H](C(=O)O)[C@H]1CC(=O)O [kainate]
[7]; selective ionotropic glutamate receptor agonists
  effect on metabotropic glutamate receptors: little effect

## N[C@@]1(C(=O)O)CC[C@@H](C(=O)O)C1 [trans-ACPD, trans 1S,3R-1-aminocyclopentane-1,3-dicarboxylicacid]
Nerve cell cultures
  inhibition of NMDA induced neurotoxicity: inhibit NMDA induced neurotoxicity
[9]
  effect on release of dopamine: increase release of dopamine
MCAO model in mice
  neuroprotection: neuroprotective

## N[C@@H](Cn1oc(=O)[nH]c1=O)C(=O)O [quisqualate]
[7]
  agonism on the metabotropic glutamate receptor: non-selective agonists
Control BHK cells
  stimulation of PI-hydrolysis: no stimulation
mGluR1α
  increase over basal PI-hydrolysis: 6-8 fold
